Test results: Sander's compilation of Henry's law constants (doi:10.1016/j.chroma.2004.12.027)

Assay: Henry solubility constant Hcp at 298.15 K (mol/(m3 Pa))
Details: reference: Diaz et al. (2005)

Row | Henry solubility constant Hcp | SMILES
1 | 0.012 | COc1c(Cl)cc(Br)cc1Cl [4-bromo-2,6-dichloro-1-methoxybenzene]
2 | 0.0077 | COc1c(Cl)ccc(Cl)c1Br [6-bromo-2,5-dichloro-1-methoxybenzene]
3 | 0.011 | COc1c(Cl)ccc(Br)c1Cl [3-bromo-2,6-dichloro-1-methoxybenzene]
4 | 0.0082 | COc1c(Cl)cc(Cl)cc1Br [2-bromo-4,6-dichloro-1-methoxybenzene]
5 | 0.0052 | COc1c(Br)ccc(Br)c1Br [1,3,4-tribromo-2-methoxybenzene]
6 | 0.0074 | COc1c(Br)ccc(Cl)c1Br [2,6-dibromo-3-chloro-1-methoxybenzene]
7 | 0.02 | COc1c(Br)cc(Cl)cc1Br [2,6-dibromo-4-chloro-1-methoxybenzene]

Row | SMILES | Henry solubility constant Hcp
8 | COc1c(Cl)cc(Cl)cc1Cl [1,3,5-trichloro-2-methoxybenzene] | 0.0044
9 | COc1c(Cl)ccc(Cl)c1Cl [1,2,4-trichloro-3-methoxybenzene] | 0.011
10 | COc1c(Br)cc(Br)cc1Br [1,3,5-tribromo-2-methoxybenzene] | 0.019
